pIC50, pKi: −log10 of the molar value.
Tests used:
adrenergic receptor α1A = target: T1, adrenergic receptor α1A (Rattus norvegicus, UniProt P43140); assay: radioligand binding to adrenergic receptor α1A ([3H] Prazosin)
T1 construct: membrane species from rat submaxillary glands (rat of Wistar breed) are prepared; from tissue; host or cells: rat (Wistar) submaxillary gland membranes
T1 sequence (P43140 1-466): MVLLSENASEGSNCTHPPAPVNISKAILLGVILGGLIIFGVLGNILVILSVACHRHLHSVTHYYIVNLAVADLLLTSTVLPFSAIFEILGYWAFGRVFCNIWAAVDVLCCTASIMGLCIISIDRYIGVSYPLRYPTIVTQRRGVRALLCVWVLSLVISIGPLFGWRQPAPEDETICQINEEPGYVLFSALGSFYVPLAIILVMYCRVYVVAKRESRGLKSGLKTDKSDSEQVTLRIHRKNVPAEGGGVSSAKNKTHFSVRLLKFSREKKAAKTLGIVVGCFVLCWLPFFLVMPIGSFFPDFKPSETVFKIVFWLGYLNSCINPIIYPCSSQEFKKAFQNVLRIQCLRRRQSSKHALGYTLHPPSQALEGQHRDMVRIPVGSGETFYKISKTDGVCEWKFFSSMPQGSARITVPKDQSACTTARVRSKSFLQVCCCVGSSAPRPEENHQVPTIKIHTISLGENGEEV
Procedure: Determination of investigated compounds' binding to α1A receptor was carried out according to the method described in [Michel A D, Loury D N and Whiting R l. Identification of a single α1A-adrenoceptor corresponding to the α1A-subtype in rat submaxillary gland. Br J. Pharmacol. 98:883-889, 1989]. […] Prazosin is used as positive control.

adrenergic receptor α1B = target: T2, adrenergic receptor α1B (Rattus norvegicus, UniProt P15823); assay: radioligand binding to adrenergic receptor α1B ([3H] Prazosin)
T2 construct: membrane species from rat liver (rat of Wistar breed) are prepared; from tissue; host or cells: rat (Wistar) liver membranes
T2 sequence (P15823 1-515): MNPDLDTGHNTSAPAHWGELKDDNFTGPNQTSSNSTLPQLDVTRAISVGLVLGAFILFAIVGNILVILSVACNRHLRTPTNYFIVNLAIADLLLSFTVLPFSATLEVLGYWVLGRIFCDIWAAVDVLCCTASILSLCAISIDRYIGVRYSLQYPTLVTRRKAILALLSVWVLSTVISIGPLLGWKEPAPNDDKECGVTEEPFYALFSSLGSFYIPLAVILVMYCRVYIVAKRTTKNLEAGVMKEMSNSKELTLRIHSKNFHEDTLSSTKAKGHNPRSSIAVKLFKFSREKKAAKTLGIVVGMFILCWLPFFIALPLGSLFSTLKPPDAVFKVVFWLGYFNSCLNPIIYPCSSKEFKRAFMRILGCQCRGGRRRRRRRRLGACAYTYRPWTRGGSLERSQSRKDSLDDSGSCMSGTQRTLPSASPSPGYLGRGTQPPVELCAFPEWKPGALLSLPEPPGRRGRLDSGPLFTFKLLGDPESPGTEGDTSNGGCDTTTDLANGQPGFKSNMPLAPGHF
Excerpt: Species heterogeneity of hepatic α1A-, α1B-, and α1C-subtypes. Biochem Biophys Res Commun. 186:760-7676 1992]. […] Prazosin is used as positive control.

human α1D receptor = target: T3, human α1D receptor (Homo sapiens, UniProt P25100); assay: radioligand binding to adrenergic receptor α1D ([3H] Prazosin)
T3 construct: expressed in transfected cells; host or cells: HEK-293
T3 sequence (P25100 1-572): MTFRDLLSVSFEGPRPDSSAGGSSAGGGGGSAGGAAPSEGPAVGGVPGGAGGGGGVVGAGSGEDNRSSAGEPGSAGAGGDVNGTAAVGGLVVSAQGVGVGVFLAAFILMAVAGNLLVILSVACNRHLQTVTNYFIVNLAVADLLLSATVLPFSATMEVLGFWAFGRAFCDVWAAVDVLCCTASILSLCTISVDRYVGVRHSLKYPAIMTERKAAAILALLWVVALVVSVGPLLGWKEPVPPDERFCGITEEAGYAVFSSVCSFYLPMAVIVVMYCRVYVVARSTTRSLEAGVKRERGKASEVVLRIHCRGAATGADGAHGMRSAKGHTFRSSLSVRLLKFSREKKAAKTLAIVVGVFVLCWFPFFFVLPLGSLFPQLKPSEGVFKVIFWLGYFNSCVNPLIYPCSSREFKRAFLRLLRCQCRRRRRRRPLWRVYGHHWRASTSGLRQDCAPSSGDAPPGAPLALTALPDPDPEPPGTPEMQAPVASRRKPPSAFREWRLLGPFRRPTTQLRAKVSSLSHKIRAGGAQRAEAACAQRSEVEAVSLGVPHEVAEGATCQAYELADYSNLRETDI
Excerpt: 6-C. […] For this purpose sDNA of human α1D receptor is expressed in HEK-293 cells, as it was described in [T L Theroux, T A Esbenshade, R D Peavy and K P Minneman. Coupling efficiencies of human alpha 1-adrenergic receptor subtypes: titration of receptor density and responsiveness with inducible and repressible expression vectors. Mol. Pharmacol.; 50: 1376-1387, 1996]. […] Prazosin is used as positive control.

human α2A receptor = target: T4, human α2A receptor (Homo sapiens, UniProt P08913); assay: radioligand binding to adrenergic receptor α2A ([3H] MK-912)
T4 construct: expressed in transfected cells; host or cells: Sf9
T4 sequence (P08913 1-465): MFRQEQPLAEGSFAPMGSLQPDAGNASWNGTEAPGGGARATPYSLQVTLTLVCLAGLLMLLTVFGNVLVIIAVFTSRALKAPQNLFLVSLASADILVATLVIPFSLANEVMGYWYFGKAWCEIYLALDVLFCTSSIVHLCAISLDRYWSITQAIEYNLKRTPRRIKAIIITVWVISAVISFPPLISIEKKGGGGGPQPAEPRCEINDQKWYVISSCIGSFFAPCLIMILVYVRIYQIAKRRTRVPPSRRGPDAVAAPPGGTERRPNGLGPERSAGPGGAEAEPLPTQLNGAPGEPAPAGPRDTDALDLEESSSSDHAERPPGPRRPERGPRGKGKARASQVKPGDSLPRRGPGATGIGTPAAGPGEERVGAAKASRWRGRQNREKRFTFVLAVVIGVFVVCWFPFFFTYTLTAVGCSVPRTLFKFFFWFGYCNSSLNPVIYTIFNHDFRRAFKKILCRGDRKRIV
Excerpt: J Pharmacol ExpTher. […] Yohimbine is used as positive control.

human D1 receptor = target: T5, human D1 receptor (Homo sapiens, UniProt P21728); assay: radioligand binding to dopamine receptor D1 ([3H] SCH-23390)
T5 construct: expressed in transfected cells; host or cells: CHO
T5 sequence (P21728 whole entry): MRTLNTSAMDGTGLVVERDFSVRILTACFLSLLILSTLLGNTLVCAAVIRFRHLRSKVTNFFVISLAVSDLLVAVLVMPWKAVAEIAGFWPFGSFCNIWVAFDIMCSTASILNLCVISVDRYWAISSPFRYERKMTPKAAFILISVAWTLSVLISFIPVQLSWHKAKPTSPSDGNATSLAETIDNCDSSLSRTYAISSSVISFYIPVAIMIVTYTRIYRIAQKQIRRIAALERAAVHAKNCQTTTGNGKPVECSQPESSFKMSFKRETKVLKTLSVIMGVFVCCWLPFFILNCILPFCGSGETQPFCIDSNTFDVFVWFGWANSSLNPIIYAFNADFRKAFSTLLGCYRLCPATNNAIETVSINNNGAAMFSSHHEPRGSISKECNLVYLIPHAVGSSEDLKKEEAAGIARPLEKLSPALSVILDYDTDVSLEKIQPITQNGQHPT
Excerpt: For this purpose sDNA of human D1 receptor is expressed in CHO cells, as it was described in [Dearry A, Gingrich J A, Falardeau P, Fremeau R T Jr, Bates M D and Caron M G. Molecular cloning and expression of the gene for a human D1 dopamine receptor. Nature. […] Nature.

human D2S receptor = target: T6, human D2S receptor (Homo sapiens, UniProt P14416); assay: radioligand binding to dopamine receptor D2S ([3H] Spiperone)
T6 construct: expressed in transfected cells; host or cells: CHO
T6 sequence (P14416 1-414 isoform P14416-2): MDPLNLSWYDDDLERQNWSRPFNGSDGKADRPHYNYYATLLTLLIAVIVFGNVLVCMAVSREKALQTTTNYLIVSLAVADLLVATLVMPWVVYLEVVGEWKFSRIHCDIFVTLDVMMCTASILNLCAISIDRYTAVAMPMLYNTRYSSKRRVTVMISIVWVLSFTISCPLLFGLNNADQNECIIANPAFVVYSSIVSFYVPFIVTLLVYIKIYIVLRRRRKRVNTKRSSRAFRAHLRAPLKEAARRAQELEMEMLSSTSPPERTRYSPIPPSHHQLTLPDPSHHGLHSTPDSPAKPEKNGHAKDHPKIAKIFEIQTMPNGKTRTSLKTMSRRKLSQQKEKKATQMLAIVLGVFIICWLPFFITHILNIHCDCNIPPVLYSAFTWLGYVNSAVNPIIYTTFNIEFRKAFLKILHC
Excerpt: 7-C. […] For this purpose sDNA of human D2S receptor is expressed in CHO cells, as described in [Hayes G, Biden T J, Selbie L A and Shine J, Structural subtypes of the dopamine D2 receptor are functionally distinct. […] Mol. Endocrinol. […] Mol. Endocrinol. […] Spiperone is used as positive control.

human H1 receptor = target: T7, human H1 receptor (Homo sapiens, UniProt P35367); assay: radioligand binding to histamine receptor H1 ([3H] Pyrilamine)
T7 construct: expressed in transfected cells; host or cells: CHO-K1
T7 sequence (P35367 whole entry): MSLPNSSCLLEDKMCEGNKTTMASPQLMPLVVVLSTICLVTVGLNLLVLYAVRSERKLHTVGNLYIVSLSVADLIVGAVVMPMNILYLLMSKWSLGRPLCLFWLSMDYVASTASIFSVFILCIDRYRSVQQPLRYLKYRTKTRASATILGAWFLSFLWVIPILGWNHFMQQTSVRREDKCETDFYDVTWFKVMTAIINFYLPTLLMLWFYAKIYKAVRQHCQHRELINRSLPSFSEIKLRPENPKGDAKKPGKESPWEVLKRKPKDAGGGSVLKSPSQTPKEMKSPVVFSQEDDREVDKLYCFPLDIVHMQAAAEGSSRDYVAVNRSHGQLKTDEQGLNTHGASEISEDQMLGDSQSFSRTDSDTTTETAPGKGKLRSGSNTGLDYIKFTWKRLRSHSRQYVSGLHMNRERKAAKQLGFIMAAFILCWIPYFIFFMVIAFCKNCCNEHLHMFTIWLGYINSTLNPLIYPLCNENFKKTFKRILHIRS
Excerpt: Biochem Biophys Res Comm. 197(3): 1601-1608, 1993]. […] Biochem Biophys Res Comm. 197(3): 1601-1608, 1993].
Pyrilamine is used as positive control.

imidazoline receptor I2 = assay: radioligand binding to imidazoline receptor I2 ([3H] Idazoxan); design: species or system rat; conditions: 10 μM ligand
Procedure: Determination of investigated compounds' binding to imidazoline I2 receptor is carried out according to the method described in [Brown C M, MacKinnon A C, McGrath J C, Spedding M and Kilpatrick A T, a2-Adrenoceptor subtypes and imidazoline-like binding in the rat brain. Br J. Pharmacol. 99:803-809, 1990]. […] Idazoxan is used as positive control.

mice = assay: Mice Training in Morris Water Maze (Scopolamine); type: in vivo; conditions: unitary introduction of active ingredient
Procedure: Mice Training in Morris Water Maze. A round pool which was filled with water at 20-22° C. was used. A round ceramic platform of 14 cm height was placed in the pool. Animals's behavior was registered with automated computer videosystem in combination with software package of movement analysis Any-maze (Stoelting Co., US). Before testing mice suitable for training were selected. That was done by placing the platform 1 cm above the water level and putting an animal on the platform for 20 seconds. Then the mouse was sunk into the water on the opposite side of the pool, allowed to find the platform and climbed it within 60 seconds, where it was left for additional 20 seconds. After that the mouse was repeatedly immersed into water on the opposite side of the pool and allowed to look for platform. If it failed in finding the platform within 60 seconds the experimentator helped it to find the platform and climb it. If the mice could not find the platform itself in two consecutive attempts it was excluded from experiment.
During the next two days the platform was placed 0.5 centimeter lower the water level. Every day the mice were given four attempts for finding the platform within 60 seconds. The time interval between the attempts was 20 seconds, during which the mice stayed on the platform. Every day before the first attempt mouse was placed on the platform for 20 seconds. The time needed for finding and climbing the platform was registered. The animals were sunk in water in 3 different places on the side of the pool opposite to platform. On each day of two-day testing 35-40 minutes before the beginning of training the mice were injected intraintestinally with physiological solution, Scopolamine or Scopolamine in combination with investigated compound. At least 8 animals were used in each group.
On the third day the platform was removed and each animal was placed one time in the pool for a period of 60 seconds. The time each mouse spent in the area where the platform had been located during the previous days was registered. This time interval was regarded as a measure of effectiveness of training fulfilled during the previous two days. The testing was carried out during the day time in isolated laboratory using “white noise” at level of about 70 decibel above the human hearing threshold.

SMILES | pIC50 (adrenergic receptor α1A) | pKi (adrenergic receptor α1A) | nH α1A (adrenergic receptor α1A) | pIC50 (adrenergic receptor α1B) | pKi (adrenergic receptor α1B) | nH α1B (adrenergic receptor α1B) | pIC50 (human α1D receptor) | pKi (human α1D receptor) | pIC50 (human α2A receptor) | pKi (human α2A receptor) | nH α2A (human α2A receptor) | pIC50 (human D1 receptor) | pIC50 (human D2S receptor) | nH D2S (human D2S receptor) | pIC50 (human H1 receptor) | pKi (human H1 receptor) | nH H1 (human H1 receptor) | imidazoline I2 receptor % inhibition (imidazoline receptor I2) [%] | memory disorders caused by Scopolamine in Morris water maze (mice)
Cc1ccc2c(c1)c1c(n2CCc2ccc(C)nc2)CCN(C)C1.Cl.Cl [1.1.2(4-2)•2HCl] | 6.87 | 7.26 | 1.12 | 7.06 | 7.32 | 1.54 | 6.62 | 6.93 | 6.54 | 6.97 | 0.828 | 5.36 | 5.76 | 0.724 | 8.37 | 8.80 | 1.01 | 98 | 
Cc1ccc2c(c1)c1c(n2CCc2ccncc2)CCCN(C)C1.Cl.Cl [1.2.2(5-3)•2HCl] |  |  |  |  |  |  |  |  |  |  |  |  |  |  |  |  |  |  | decreasing memory disorders coused by Scopalomine
